From US5773573A, “HIV peptides” (priority 1994, dated 1998)
Residues, ends and D or L forms follow the SMILES beside them.

Tests used:
[1] = system: autologous PHA T cell blasts; test: Cytotoxicity Assay (51Cr release) of peptide-induced short-term PBMC cultures against autologous targets; format: cell-based, human; settings: for autoreactive response (autocytotoxic, 51Cr release): peptide stimulant 100 ng/ml 4-8 hours
Protocol: (§1) Peripheral Blood Mononuclear Cells (PBMC) were isolated from 8 HIV seronegative individuals who volunteered as donors for the study. […] PBMC (10^6 /ml) from the each of the donors were incubated in the presence of VHP1 or control peptide at 100 ng/ml for 4-8 hours to produce Effector Cells. Irradiated autologous PBMC without VHP1 stimulation served as controls.
(§2) VHP1 induced short-term cultures of autoreactive T cells (Effector Cells) were assayed for cytotoxic activity against autologous PHA T cell blasts stimulated with 5 μg/ml PHA for 4-5 days at a concentration of 10^4 cells/well in the absence of either control or VHP1 peptide (Target Cells). 1-2×10^6 Target Cells were labeled with […] of ^51 Cr in 0.3 ml of medium for 1 hour at 37° C. Target cells were washed 3× in medium, diluted to 10^5 or 10^4 cells/ml and […] of cell suspension added to each well of a V-bottomed 96-well microtitre plate. Effector Cells were added to the Target Cells at Effector:Target (E:T) ratios from 50:1 to 6.25:1. Cultures were incubated for 4 hours at 37° C. and supernatants were harvested and counted for ^51 Cr release. Percent cytotoxicity is calculated using the formula : […] (experimental release-spontaneous release)/(maximum release-spontaneous release). Spontaneous release and maximum release were determined by incubating target cells in medium or 1.0% Triton ×-100 respectively. Results where calculated as means ± Standard Deviations (SD) of triplicate cultures and a positive result was scored above 20% specific lysis. The cytotoxicity assay was repeated for allogeneic Target cells from donors (Target-1, Target-2 and Target-3) and the percent specific lysis scored at an Effector:Target ratio of 10:1.

[2] = system: allogeneic PHA activated T cell Targets; test: Cytotoxicity Assay (51Cr release) of VHP1-induced Effectors against allogeneic targets; format: cell-based, human
Protocol: as §1, §2
To establish the MHC specificity of the cytotoxic cells stimulated by VHP1, further Cytotoxicity Assays with allogeneic PHA activated T cell Targets with different MHC phenotypes were then performed. The Effectors were derived from short term cultures of PBMC from donors of either MHC B8 or B35 (trigger+) incubated with VHP1 for 4-8 hours. The Target Cells were from donors with either B8 B35 (trigger+) or B27(Trigger-) MHC phenotype. Target PBMC incubated with radioactive ^51 Cr for one hour before being mixed with Effectors. Effector Cells were mixed with radiolabelled Target Cells and incubated for 4 hours and lysis was measured by release of radioactive ^51 Cr.
The measurement of percent specific lysis by ^51 Cr release at an Effector to Target Ratio of 10:1.

[3] = short term cultures of PBMC from donors positive for B8 or B35 (trigger+)

CC(C)[C@H](NC(=O)[C@H](CCCNC(=N)N)NC(=O)[C@H](CCCNC(=N)N)NC(=O)[C@H](CCCCN)NC(=O)[C@H](C)NC(=O)[C@H](CCCCN)NC(=O)[C@@H](N)[C@@H](C)O)C(=O)N[C@H](C(=O)N[C@@H](CCC(=O)O)C(=O)N[C@@H](CCCNC(=N)N)C(=O)N[C@@H](CCC(=O)O)C(=O)N[C@@H](CCCCN)C(=O)N[C@@H](CCCNC(=N)N)C(=O)O)C(C)C [VHP1, NH2 ThrLysAlaLysArgArgValValGluArgGluLysArgCOOH] (H-TKAKRRVVEREKR-OH)
autoreactive response (autocytotoxic, 51Cr release) ([1]; PBMC of donor eight (Trigger+)): + (a positive result was scored above 20% specific lysis) | autoreactive response (autocytotoxic, 51Cr release) ([1]; PBMC of donor five (Trigger+)): + (a positive result was scored above 20% specific lysis) | autoreactive response (autocytotoxic, 51Cr release) ([1]; PBMC of donor four (Trigger-)): - (a positive result was scored above 20% specific lysis) | autoreactive response (autocytotoxic, 51Cr release) ([1]; PBMC of donor nine (Trigger-)): - (a positive result was scored above 20% specific lysis) | autoreactive response (autocytotoxic, 51Cr release) ([1]; PBMC of donor one (Trigger-)): - (a positive result was scored above 20% specific lysis) | autoreactive response (autocytotoxic, 51Cr release) ([1]; PBMC of donor seven (Trigger+)): + (a positive result was scored above 20% specific lysis) | autoreactive response (autocytotoxic, 51Cr release) ([1]; PBMC of donor six (Trigger+)): + (a positive result was scored above 20% specific lysis) | autoreactive response (autocytotoxic, 51Cr release) ([1]; PBMC of donor two (Trigger-)): - (a positive result was scored above 20% specific lysis) | autocytotoxic responses against activated autologous T cell targets ([1]; short term cultures of PBMC from donors negative for B8 or B35 (trigger-)): did not produce significant levels | autocytotoxic responses against activated autologous T cell targets [1, 3]: significant autocytoxic responses | percent specific lysis by 51Cr release ([2]; VHP1-induced Effectors JMC-B8, Target1-B8, Effector to Target Ratio 10:1): 30% | percent specific lysis by 51Cr release ([2]; VHP1-induced Effectors JMC-B8, Target2-B35, Effector to Target Ratio 10:1): 30% | percent specific lysis by 51Cr release ([2]; VHP1-induced Effectors JMC-B8, Target3-B27, Effector to Target Ratio 10:1): 7% | percent specific lysis by 51Cr release ([2]; VHP1-induced Effectors SW-B35, Target1-B8, Effector to Target Ratio 10:1): 9% | percent specific lysis by 51Cr release ([2]; VHP1-induced Effectors SW-B35, Target2-B35, Effector to Target Ratio 10:1): 10% | percent specific lysis by 51Cr release ([2]; VHP1-induced Effectors SW-B35, Target3-B27, Effector to Target Ratio 10:1): 2% | percent specific lysis by 51Cr release ([2]; VHP1-induced Effectors WW-B35, Target1-B8, Effector to Target Ratio 10:1): 30% | percent specific lysis by 51Cr release ([2]; VHP1-induced Effectors WW-B35, Target2-B35, Effector to Target Ratio 10:1): 32% | percent specific lysis by 51Cr release ([2]; VHP1-induced Effectors WW-B35, Target3-B27, Effector to Target Ratio 10:1): 14%

CC(C)C[C@H](N)C(=O)N[C@@H](CCC(=O)O)C(=O)N[C@@H](CC(=O)O)C(=O)N[C@@H](CCCNC(=N)N)C(=O)N[C@@H](CCCNC(=N)N)C(=O)N[C@@H](C)C(=O)N[C@@H](C)C(=O)N[C@H](C(=O)N[C@@H](CC(=O)O)C(=O)N[C@H](C(=O)N[C@H](C(=O)N[C@@H](CS)C(=O)N[C@@H](CCCNC(=N)N)C(=O)N[C@@H](C)C(=O)O)C(C)C)[C@@H](C)O)C(C)C [Control, NH2 LeuGluAspArgArgAlaAlaValAspThrValCysArgAlaCOOH] (H-LEDRRAAVDTVCRA-OH)
autoreactive response (autocytotoxic, 51Cr release) ([1]; PBMC of donor eight (Trigger+)): - (a positive result was scored above 20% specific lysis) | autoreactive response (autocytotoxic, 51Cr release) ([1]; PBMC of donor five (Trigger+)): - (a positive result was scored above 20% specific lysis) | autoreactive response (autocytotoxic, 51Cr release) ([1]; PBMC of donor four (Trigger-)): - (a positive result was scored above 20% specific lysis) | autoreactive response (autocytotoxic, 51Cr release) ([1]; PBMC of donor nine (Trigger-)): - (a positive result was scored above 20% specific lysis) | autoreactive response (autocytotoxic, 51Cr release) ([1]; PBMC of donor one (Trigger-)): - (a positive result was scored above 20% specific lysis) | autoreactive response (autocytotoxic, 51Cr release) ([1]; PBMC of donor seven (Trigger+)): - (a positive result was scored above 20% specific lysis) | autoreactive response (autocytotoxic, 51Cr release) ([1]; PBMC of donor six (Trigger+)): - (a positive result was scored above 20% specific lysis) | autoreactive response (autocytotoxic, 51Cr release) ([1]; PBMC of donor two (Trigger-)): - (a positive result was scored above 20% specific lysis) | autocytotoxic responses against activated autologous T cell targets [1, 3]: did not produce significant levels
